Source: ChEMBL document CHEMBL4020723, “Indoles as therapeutics of interest in medicinal chemistry: Bird's eye view” (Eur J Med Chem, 2017)
Converted amounts (≈) assume the structure as drawn.

How the values were obtained:
[1] = tested on: Plasmodium falciparum; test: Antiplasmodial activity against chloroquine-resistant Plasmodium falciparum W2 infected in human erythrocytes after 72 hrs by giemsa staining based microscopic analysis; assay type: functional, cell-based; details: W2, 72 h
[2] = tested on: HCT-8; test: Cytotoxicity against human HCT8 cells; assay type: functional, cell-based
[3] = Cytotoxicity against human MDA-MB cells; assay type: functional, cell-based
[4] = tested on: P388; test: Cytotoxicity against mouse P388 cells; assay type: functional, cell-based
[5] = tested on: A549; test: Cytotoxicity against human A549 cells; assay type: functional, cell-based
[6] = tested on: Human alphaherpesvirus 1; test: Antiviral activity against Herpes simplex virus type 1 by plaque reduction assay; assay type: functional; details: read-out: ID50 (the source's name)
[7] = tested on: Human alphaherpesvirus 2; test: Antiviral activity against Herpes simplex virus type 2 by plaque reduction assay; assay type: functional; details: read-out: ID50 (the source's name)
[8] = tested on: Human immunodeficiency virus 1; test: Antiviral activity against HIV-1 assessed as inhibition of virus-induced syncytia formation; assay type: functional
[9] = tested on: Rattus norvegicus; test: Antiinflammatory activity in rat assessed as inhibition of carrageenan-induced paw edema at 50 mg/kg, po administered 1 hr prior to carrageenan challenge measured 4 hrs post dose; assay type: functional
[10] = tested on: HeLa; test: Cytotoxicity against human HeLa cells; assay type: functional, cell-based
[11] = tested on: Plasmodium falciparum; test: Antimalarial activity against Plasmodium falciparum D6; assay type: functional
[12] = tested on: Mycobacterium; test: Antibacterial activity against Mycobacterium; assay type: functional
[13] = tested on: Staphylococcus aureus; test: Antibacterial activity against Staphylococcus aureus; assay type: functional
[14] = tested on: HL-60; test: Cytotoxicity against human HL60 cells assessed as reduction in cell viability after 72 hrs by MTT assay; assay type: functional, cell-based; details: HL-60, 72 h
[15] = tested on: K562; test: Cytotoxicity against human K562 cells assessed as reduction in cell viability after 72 hrs by MTT assay; assay type: functional, cell-based; details: K562, 72 h
[16] = target: Protein kinase C beta type (Homo sapiens) (UniProt P05771); test: Inhibition of PKCbeta (unknown origin)
[17] = target: Protein kinase C alpha type (Homo sapiens) (UniProt P17252); test: Inhibition of PKCalpha (unknown origin)
[18] = tested on: Streptococcus pyogenes; test: Antibacterial activity against Streptococcus pyogenes; assay type: functional
[19] = tested on: Enterococcus faecalis; test: Antibacterial activity against Enterococcus faecalis; assay type: functional
[20] = tested on: Staphylococcus haemolyticus; test: Antibacterial activity against Staphylococcus haemolyticus; assay type: functional
[21] = tested on: Enterococcus faecium; test: Antibacterial activity against Enterococcus faecium; assay type: functional
[22] = tested on: Bacillus subtilis; test: Antibacterial activity against Bacillus subtilis; assay type: functional
[23] = tested on: Plasmodium falciparum; test: Antiplasmodial activity against chloroquine-resistant Plasmodium falciparum K1 after 24 hrs by liquid scintillation counting analysis; assay type: functional; details: K1, 24 h
[24] = tested on: Plasmodium falciparum; test: Antiplasmodial activity against chloroquine-resistant Plasmodium falciparum W2 after 24 hrs by liquid scintillation counting analysis; assay type: functional; details: W2, 24 h
[25] = Inhibition of HDAC (unknown origin); set-up: species or system Homo sapiens
[26] = tested on: HT-29; test: Cytotoxicity against human HT-29 cells; assay type: functional, cell-based
[27] = tested on: KB; test: Cytotoxicity against human KB cells; assay type: functional, cell-based
[28] = Cytotoxicity against human NSCLC-N6 cells; assay type: functional, cell-based
[29] = tested on: P388; test: Cytotoxicity against mouse doxorubicin-resistant P388 cells; assay type: functional, cell-based
[30] = tested on: Helicobacter pylori; test: Antibacterial activity against Helicobacter pylori; assay type: functional

Protein kinase C beta type (Homo sapiens), sequence (P05771 2-671 limits assumed): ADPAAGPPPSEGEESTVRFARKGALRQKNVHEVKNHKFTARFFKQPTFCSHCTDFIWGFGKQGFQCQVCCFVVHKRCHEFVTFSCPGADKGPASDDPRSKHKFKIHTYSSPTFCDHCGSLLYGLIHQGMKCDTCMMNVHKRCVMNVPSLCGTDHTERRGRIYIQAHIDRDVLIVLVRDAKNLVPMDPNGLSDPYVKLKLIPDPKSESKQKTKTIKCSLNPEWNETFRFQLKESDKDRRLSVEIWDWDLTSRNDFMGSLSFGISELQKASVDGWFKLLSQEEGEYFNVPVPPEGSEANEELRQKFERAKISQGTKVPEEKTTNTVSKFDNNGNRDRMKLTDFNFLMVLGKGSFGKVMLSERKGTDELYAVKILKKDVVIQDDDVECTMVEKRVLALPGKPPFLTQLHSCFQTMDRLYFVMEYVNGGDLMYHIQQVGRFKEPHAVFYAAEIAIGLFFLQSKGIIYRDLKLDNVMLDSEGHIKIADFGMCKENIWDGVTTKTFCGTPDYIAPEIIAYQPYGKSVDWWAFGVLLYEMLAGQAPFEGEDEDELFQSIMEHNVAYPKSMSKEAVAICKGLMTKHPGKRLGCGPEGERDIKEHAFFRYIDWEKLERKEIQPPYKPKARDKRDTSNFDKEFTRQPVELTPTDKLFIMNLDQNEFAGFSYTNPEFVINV

In the case of C=C1c2[nH]c3ccccc3c2C2C(CC)C1CCN2C (stereo not drawn), the IC50 [1] is reported as less than 1 µg/mL.
Molecule CN1C[C@H](c2c[nH]c3c(Br)c(Br)cc(O)c23)NC[C@H]1c1c[nH]c2cc(Br)ccc12 has an IC50 [2] of 1 to 10 µg/mL (≈ 1.71 to 17.1 µM), an IC50 [3] of 1 to 10 µg/mL (≈ 1.71 to 17.1 µM) and an IC50 [4] of 15 µg/mL (≈ 25.7 µM). For the same molecule, the IC50 [5] was 1 to 10 µg/mL (≈ 1.71 to 17.1 µM).
With CC(C)CC(=O)[C@@H](O)Cc1c[nH]c2ccccc12 the IC50 [6] was 1500 µg/mL (≈ 6110 µM) and the IC50 [7] was 1500 µg/mL (≈ 6110 µM).
Molecule COc1ccc2c(c1)N=CN1CCc3c([nH]c4ccccc34)C3=NCC[C@@]321 has an EC50 [8] of 0.95 µg/mL (≈ 2.67 µM).
O=C(O)c1ccc(C(=O)N/N=C/c2c(-c3cccs3)[nH]c3ccccc23)cc1 gave an inhibition in vivo at 50 mg/kg [9] of 55.3%.
Work on COC(=O)[C@@]1(C)Nc2c(O)cc3c(c2C1=O)C[C@@H](Br)CN3C(=O)c1cc2cc(OC)c(OC)c(OC)c2[nH]1 yielded an IC50 [10] of 0.001 to 1 nM.
Oc1cccc2c1[nH]c1c(C3=C[C@@]4(O)CC/C=C\CCCCN5CC[C@@H]3[C@@]3(C[C@@H]6/C=C\CCCCN6[C@H]34)C5)nccc12 gave an MIC [11] of 6 µg/mL (≈ 10.6 µM).
In the case of O=c1ccc2nccc3c4cccc(O)c4n1c23, the MIC [12] is reported as 2 to 32 µg/mL (≈ 8.47 to 135 µM) and the MIC [13] is reported as 8 to 64 µg/mL (≈ 33.9 to 271 µM).
COC(=O)[C@@]1(C)Nc2c(O)cc3c(c2C1=O)[C@@H](CBr)CN3C(=O)c1cc2cc(OC)c(OC)c(OC)c2[nH]1 gave an IC50 [10] of 0.001 to 1 nM.
With CC(C)=CCc1cccc2c1N[C@@H]1N3C(=O)[C@H](Cc4c[nH]c5c(CC=C(C)C)cccc45)NC(=O)[C@@H]3C[C@]21O the IC50 [14] was 780 nM and the IC50 [15] was 22400 nM.
Molecule COC(=O)[C@@]1(C)NC2=C(C1=O)[C@@]13C[C@H]1CN(C(=O)c1cc4cc(OC)c(OC)c(OC)c4[nH]1)C3=CC2=O has an IC50 [10] of 0.001 to 1 nM.
CN1C(=N)N(C)/C(=C/c2c[nH]c3cc(Br)ccc23)C1=O showed an MIC [11] of 0.34 µg/mL (≈ 1.02 µM).
Work on [O-][n+]1ccc2c([nH]c3ccccc32)c1C1=C[C@@]2(O)CC/C=C\CCCCN3CC[C@@H]1[C@]1(C[C@@H]4/C=C\CCCCN4[C@H]12)C3 yielded an MIC [11] of 11 µg/mL (≈ 19.5 µM).
Work on N#CCCn1c2ccccc2c2c3c(c4c5ccccc5[nH]c4c21)C(=O)NC3 yielded an INH [16] of 6.2 nM and an INH [17] of 2.3 nM.
For CN[C@@H](CC(C)C)C(=O)NCCc1c(Br)n(C)c2cc(Br)c(Br)cc12 [ALTEMATAMIDE A], the MIC [18] was 4 to 32 µg/mL (≈ 7.43 to 59.5 µM), the MIC [13] was 4 to 32 µg/mL (≈ 7.43 to 59.5 µM) and the MIC [19] was 4 to 32 µg/mL (≈ 7.43 to 59.5 µM). It also gave an MIC [20] of 4 to 32 µg/mL (≈ 7.43 to 59.5 µM), an MIC [21] of 4 to 32 µg/mL (≈ 7.43 to 59.5 µM) and an MIC [22] of 4 to 32 µg/mL (≈ 7.43 to 59.5 µM).
In the case of CN[C@@H](CC(C)C)C(=O)NCCc1c(Br)[nH]c2cc(Br)c(Br)cc12 [ALTEMATAMIDE B], the MIC [18] is reported as 4 to 32 µg/mL (≈ 7.63 to 61.1 µM), the MIC [13] is reported as 4 to 32 µg/mL (≈ 7.63 to 61.1 µM) and the MIC [19] is reported as 4 to 32 µg/mL (≈ 7.63 to 61.1 µM). For the same molecule, the MIC [20] was 4 to 32 µg/mL (≈ 7.63 to 61.1 µM), the MIC [21] was 4 to 32 µg/mL (≈ 7.63 to 61.1 µM) and the MIC [22] was 4 to 32 µg/mL (≈ 7.63 to 61.1 µM).
In the case of CN[C@@H](CC(C)C)C(=O)NCCc1c(Br)[nH]c2ccc(Br)cc12 [ALTEMATAMIDE C], the MIC [18] is reported as 4 to 32 µg/mL (≈ 8.98 to 71.9 µM), the MIC [13] is reported as 4 to 32 µg/mL (≈ 8.98 to 71.9 µM) and the MIC [19] is reported as 4 to 32 µg/mL (≈ 8.98 to 71.9 µM). It also gave an MIC [20] of 4 to 32 µg/mL (≈ 8.98 to 71.9 µM), an MIC [21] of 4 to 32 µg/mL (≈ 8.98 to 71.9 µM) and an MIC [22] of 4 to 32 µg/mL (≈ 8.98 to 71.9 µM).
O=c1ccc2nccc3c4ccccc4n1c23 [CANTHIN-6-ONE] showed an MIC [12] of 2 to 32 µg/mL (≈ 9.08 to 145 µM) and an MIC [13] of 8 to 64 µg/mL (≈ 36.3 to 291 µM).
Molecule C[n+]1c2ccccc2cc2[n-]c3ccccc3c21.Cl [CRYPTOLEPINE HYDROCHLORIDE] has an IC50 [23] of 0.027 to 0.063 µg/mL and an IC50 [24] of 0.027 to 0.063 µg/mL.
Work on C[n+]1c2ccccc2cc2[n-]c3ccccc3c21 [CRYPTOLEPINE] yielded an IC50 [23] of 0.027 to 0.063 µg/mL (≈ 0.116 to 0.271 µM) and an IC50 [24] of 0.027 to 0.063 µg/mL (≈ 0.116 to 0.271 µM).
In the case of O=C(/C=C/c1ccc(CN(CCO)CCc2c[nH]c3ccccc23)cc1)NO [DACINOSTAT], the IC50 [25] is reported as 32 nM.
Molecule NCCc1c(C(CN)c2c[nH]c3cc(Br)ccc23)[nH]c2cc(C(CN)c3c[nH]c4cc(Br)ccc34)c(O)cc12 (stereo not drawn) [GELLIUSINE A] has an IC50 [26] of 10 to 20 µg/mL (≈ 15.4 to 30.7 µM), an IC50 [27] of 10 to 20 µg/mL (≈ 15.4 to 30.7 µM) and an IC50 [28] of 10 to 20 µg/mL (≈ 15.4 to 30.7 µM). It also gave an IC50 [29] of 10 to 20 µg/mL (≈ 15.4 to 30.7 µM) and an IC50 [4] of 10 to 20 µg/mL (≈ 15.4 to 30.7 µM).
In the case of Cn1c2c3ccccc3nc-2c(O)c2ccccc21 [HYDROXYCRYPTOLEPINE], the IC50 [23] is reported as 0.027 to 0.063 µg/mL (≈ 0.109 to 0.254 µM) and the IC50 [24] is reported as 0.027 to 0.063 µg/mL (≈ 0.109 to 0.254 µM).
Molecule CNC1=NC(=O)[C@H]([C@H](C)c2c[nH]c3ccccc23)O1 [INDOMYCIN] has an MIC [13] of 0.5 µg/mL (≈ 1.94 µM) and an MIC [30] of 0.016 µg/mL (≈ 0.0622 µM).
Molecule O[C@]12C=C(c3nccc4c3[nH]c3ccccc34)[C@@H]3CCN(CCCC/C=C\CC1)C[C@@]31C[C@@H]3/C=C\CCCCN3[C@H]12 [MANZAMINE A] has an MIC [11] of 4.5 µg/mL (≈ 8.2 µM).
With Cn1c2nc3ccccc3c-2cc2ccccc21 [NEOCRYPTOLEPINE] the IC50 [23] was 0.027 to 0.063 µg/mL (≈ 0.116 to 0.271 µM) and the IC50 [24] was 0.027 to 0.063 µg/mL (≈ 0.116 to 0.271 µM).
